Reference: PMC10987797, “Functional characterization of Capsicum chinense vanillin aminotransferase: Detection of vanillylamine-forming activity from vanillin” (Biochemistry and Biophysics Reports, 2024)
Each block holds one compound with its values, some of them ahead of it.

How the values were obtained:
Format in all cases: biochemical
[1] = biological target: T1, VAMT (vanillin aminotransferase; rVAMT) (Capsicum chinense, UniProt O82521); assay: HPLC assay of vanillin glucoside formation, Michaelis-Menten fit; settings: 100 mM pyruvate as amino acceptor, 0.1 mM PLP, 50 mM potassium phosphate pH 8.0; standard assay 30 °C
T1 construct: full length, N-terminal His6-tag (pET28a) cut off by thrombin; recombinant from E. coli Rosetta2 (DE3)
T1 sequence (O82521 whole entry): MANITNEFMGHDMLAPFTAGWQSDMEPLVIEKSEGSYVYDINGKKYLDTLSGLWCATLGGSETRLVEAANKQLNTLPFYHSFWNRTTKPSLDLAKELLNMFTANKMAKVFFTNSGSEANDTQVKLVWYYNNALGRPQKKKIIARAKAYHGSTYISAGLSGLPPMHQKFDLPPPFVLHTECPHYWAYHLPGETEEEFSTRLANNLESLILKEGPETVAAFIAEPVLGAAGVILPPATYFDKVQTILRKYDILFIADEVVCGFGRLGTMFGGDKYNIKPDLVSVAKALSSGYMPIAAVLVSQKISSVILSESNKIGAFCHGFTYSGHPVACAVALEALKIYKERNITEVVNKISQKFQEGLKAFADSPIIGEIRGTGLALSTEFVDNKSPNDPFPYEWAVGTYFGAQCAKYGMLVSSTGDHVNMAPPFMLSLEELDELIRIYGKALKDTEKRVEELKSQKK
Source text: HPLC assay of vanillin glucoside formation, Michaelis-Menten fit on VAMT (vanillin aminotransferase; rVAMT)

[2] = biological target: T1, VAMT (vanillin aminotransferase; rVAMT); assay: HPLC assay of vanillin formation, Michaelis-Menten fit; settings: 0.1 mM PLP, 50 mM potassium phosphate pH 8.0, standard assay 30 °C
Source text: HPLC assay of vanillin formation, Michaelis-Menten fit on VAMT (vanillin aminotransferase; rVAMT)

[3] = biological target: T1, VAMT (vanillin aminotransferase; rVAMT); assay: HPLC assay of vanillylamine formation, Michaelis-Menten fit; settings: 0.1 mM PLP, 50 mM potassium phosphate pH 8.0, standard assay 30 °C, ping-pong
Source text: HPLC assay of vanillylamine formation, Michaelis-Menten fit on VAMT (vanillin aminotransferase; rVAMT)

[4] = biological target: T1, VAMT (vanillin aminotransferase; rVAMT); assay: HPLC assay of vanillylamine glucoside formation, Michaelis-Menten fit; settings: 100 mM GABA as amino donor, 0.1 mM PLP, 50 mM potassium phosphate pH 8.0; standard assay 30 °C
Source text: HPLC assay of vanillylamine glucoside formation, Michaelis-Menten fit on VAMT (vanillin aminotransferase; rVAMT)

Structure (SMILES): COc1cc(CN)ccc1O[C@@H]1O[C@H](CO)[C@@H](O)[C@H](O)[C@H]1O [VAG]
Km [1]: 15 ± 4.8 mM

Structure (SMILES): CC(=O)C(=O)O [Na pyruvate]
Km ([2]; 5 mM vanillylamine as amino donor): 5.4 ± 0.34 mM

Structure (SMILES): NCCCC(=O)O [GABA]
Km ([3]; 5 mM vanillin as amino acceptor): 36 ± 2.1 mM

Structure (SMILES): COc1cc(CN)ccc1O [VA]
Km ([2]; 100 mM pyruvate as amino acceptor): 0.25 ± 0.037 mM

More lines, now with the values ahead:

Km ([3]; 100 mM GABA as amino donor): 0.48 ± 0.049 mM
Structure (SMILES): COc1cc(C=O)ccc1O [V]

Km [4]: 3.3 ± 0.56 mM
Structure (SMILES): COc1cc(C=O)ccc1O[C@@H]1O[C@H](CO)[C@@H](O)[C@H](O)[C@H]1O [VG]
